Assay results: patent US20060154927A1 (priority 2003, published 2006)
Where two headings read alike, the source gives them in different places.

Tested on: Pyricularia oryzae
Type: in vivo
Conditions: individual active compound, rice seedlings cultivar Tai-Nong 67, protective spray, evaluated 6 days after inoculation

Structure (SMILES)	Efficacy in % of the untreated control (1 ppm in the spray liquor) [%]	Efficacy in % of the untreated control (0.25 ppm in the spray liquor) [%]	Efficacy in % of the untreated control (4 ppm in the spray liquor) [%]
CC1CCN(c2c(-c3c(F)cccc3Cl)c(Cl)nc3ncnn23)CC1 [A]	11	–	–
C[C@H](Nc1c(-c2c(F)cc(F)cc2F)c(Cl)nc2ncnn12)C(F)(F)F [B]	22	–	–
CC1CCN(c2c(-c3c(F)cc(F)cc3F)c(Cl)nc3ncnn23)CC1 [I, 5-chloro-7-(4-methylpiperidin-1-yl)-6-(2,4,6-trifluorophenyl)-[1,2,4]triazolo[1,5-a]pyrimidine]	11	–	–
COc1ccc(C(=CC(=O)N2CCOCC2)c2ccc(Cl)cc2)cc1OC [IIa, 3-(4-chlorophenyl)-3-(3,4-dimethoxyphenyl)-1-morpholin-4-ylpropenone]	–	0	0
COc1ccc(C(=CC(=O)N2CCOCC2)c2ccc(F)cc2)cc1OC [IIb, 3-(4-fluorophenyl)-3-(3,4-dimethoxyphenyl)-1-morpholin-4-ylpropenone]	–	0	0
